Test results as given in patent US10633419B2, “Immunomodulators” (BRISTOL-MYERS SQUIBB COMPANY, priority 2014, dated 2020).
Positions of bridges follow the written chain, without caps; N, C: chain ends. Non-standard residues stand in square brackets, D forms with d. Residues, ends and D or L forms follow the SMILES beside them. *: point of attachment. X17 = COCCOCCOCCOCCOCCOCCOCCOCCOCCOCCOCCOCCOCCOCCOCCOCCOCCOCCOCCOCCOCCOCCOCCOCCOCCOCCOCCOCCOCCOCCOCCOCCOCCOCCOCCOCCOCCOCCOCCOCCOCCOCCOCCOCCOCCOCCOCCOCCOCCC(=O)*; CH3O(CH2CH2O)11CH2CH2CO = COCCOCCOCCOCCOCCOCCOCCOCCOCCOCCOCCOCCC(=O)*; Trp(1-CH2COOH) = N[C@@H](Cc1cn(CC(=O)O)c2ccccc12)C(=O)O; Phe(3,4,5-F3) = N[C@@H](Cc1cc(F)c(F)c(F)c1)C(=O)O; d(cisHyp) = O=C(O)[C@H]1C[C@@H](O)CN1; Hyp = O=C(O)[C@@H]1C[C@@H](O)CN1; NMeF = CN[C@@H](Cc1ccccc1)C(=O)O; NMeE = CN[C@@H](CCC(=O)O)C(=O)O; NMeNle = CCCC[C@H](NC)C(=O)O; dPip = O=C(O)[C@H]1CCCCN1; NMeA = CN[C@@H](C)C(=O)O; Pra = C#CC[C@H](N)C(=O)O; Aun = NCCCCCCCCCCC(=O)O; Dab = NCC[C@H](N)C(=O)O; Dap = NC[C@H](N)C(=O)O; Sar = CNCC(=O)O

What follows are molecules tested against T1, PD-L1 (Homo sapiens, UniProt Q9NZQ7) (assay: PD-1/PD-L1 Homogenous Time-Resolved Fluorescence (HTRF) binding assay (PD-1-Ig/PD-L1-His)). Conditions: inhibition of PD-1-Ig binding to PD-L1-TVMV-His; value given as number; read-out: HTRF IC50.
T1 construct: hPDL1(19-239)-TVMV-His; made in house; host or cells: HEK293T
T1 sequence (Q9NZQ7 with tags, fused parts or gaps): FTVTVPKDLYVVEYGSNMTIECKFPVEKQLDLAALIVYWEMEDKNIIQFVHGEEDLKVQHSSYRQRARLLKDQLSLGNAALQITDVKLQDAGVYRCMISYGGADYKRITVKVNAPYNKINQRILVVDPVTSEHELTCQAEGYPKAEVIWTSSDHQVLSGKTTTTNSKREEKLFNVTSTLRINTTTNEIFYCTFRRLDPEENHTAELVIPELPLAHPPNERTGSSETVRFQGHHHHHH
Text: The ability of the macrocyclic peptides of the present disclosure to bind to PD-L1 was investigated using a PD-1/PD-L1 Homogenous Time-Resolved Fluorescence (HTRF) binding assay.
Homogenous Time-Resolved Fluorescence (HTRF) Assays of Binding of Soluble PD-1 to Soluble PD-L1. Soluble PD-1 and soluble PD-L1 refers to proteins with carboxyl-end truncations that remove the transmembrane-spanning regions and are fused to heterologous sequences, specifically the Fc portion of the human immunoglobuling G sequence (Ig) or the hexahistidine epitope tag (His). All binding studies were performed in an HTRF assay buffer consisting of dPBS supplemented with 0.1% (w/v) bovine serum albumin and 0.05% (v/v) Tween-20. For the PD-1-Ig/PD-L1-His binding assay, inhibitors were pre-incubated with PD-L1-His (10 nM final) for 15 m in 4 μl of assay buffer, followed by addition of PD-1-Ig (20 nM final) in 1 μl of assay buffer and further incubation for 15m. PD-L1 fusion proteins from either human, cynomologous macaques, mouse, or other species were used. HTRF detection was achieved using europium crypate-labeled anti-Ig monoclonal antibody (1 nM final) and allophycocyanin (APC) labeled anti-His monoclonal antibody (20 nM final). Antibodies were diluted in HTRF detection buffer and 5 μl was dispensed on top of binding reaction. The reaction was allowed to equilibrate for 30 minutes and signal (665 nm/620 nm ratio) was obtained using an EnVision fluorometer. Additional binding assays were established between PD-1-Ig/PD-L2-His (20 and 5 nM, respectively), CD80-His/PD-L1-Ig (100 and 10 nM, respectively) and CD80-His/CTLA4-Ig (10 and 5 nM, respectively). Binding/competition studies between biotinylated Compound No. 71 and human PD-L1-His were performed as follows. Macrocyclic peptide inhibitors were pre-incubated with PD-L1-His (10 nM final) for 60 minutes in 4 μl of assay buffer followed by addition of biotinylated Compound No. 71 (0.5 nM final) in 1 μl of assay buffer. Binding was allowed to equilibrate for 30 minutes followed by addition of europium crypated labeled Streptavidin (2.5 pM final) and APC-labeled anti-His (20 nM final) in 5 μl of HTRF buffer. The reaction was allowed to equilibrate for 30m and signal (665 nm/620 nm ratio) was obtained using an EnVision fluorometer.
Recombinant Proteins. Carboxyl-truncated human PD-1 (amino acids 25-167) with a C-terminal human Ig epitope tag [hPD-1 (25-167)-3S-IG] and human PD-L1 (amino acids 18-239) with a C-terminal His epitope tag [hPD-L1(19-239)-tobacco vein mottling virus protease cleavage site (TVMV)-His] were expressed in HEK293T cells and purified sequentially by recombinant Protein A affinity chromatography and size exclusion chromatography. Human PD-L2-His (Sino Biologicals), CD80-His (Sino Biologicals), CTLA4-Ig (RnD Systems) were all obtained through commercial sources.

Row | IC50 [nM] | Structure (SMILES)
1 | 6.3 | CCCC[C@H]1C(=O)N2C[C@H](O)C[C@@H]2C(=O)N[C@@H](CC(=O)O)C(=O)N[C@@H](C(C)C)C(=O)N(C)[C@@H](Cc2ccccc2)C(=O)N[C@@H](Cc2ccc(O)cc2)C(=O)N2CCCC[C@@H]2C(=O)N[C@@H](Cc2c[nH]c3ccccc23)C(=O)N[C@@H](Cc2ccc(O)cc2)C(=O)N[C@@H](CC(C)C)C(=O)N[C@H](C(=O)NCC(=O)NCC(=O)NCC(=O)N[C@@H](CCCCNC(=O)CCOCCOCCOCCOCCOCCOCCOCCOCCOCCOCCOCCOCCOCCOCCOCCOCCOCCOCCOCCOCCOCCOCCOCCOCCOCCOCCOCCOCCOCCOCCOCCOCCOCCOCCOCCOCCOCCOCCOCCOCCOCCOCCOCCOCCOCCOCCOCCOCCOC)C(N)=O)CSCC(=O)N[C@@H](Cc2cc(F)c(F)c(F)c2)C(=O)N(C)[C@@H](Cc2ccccc2)C(=O)N1C [Example 3625] ({CH2CO}-[Phe(3,4,5-F3)][NMeF][NMeNle][d(cisHyp)]DV[NMeF]Y[dPip]WYLCGGGK(X17)-NH2; thioether N-13)

Same assay, conditions: inhibition of PD-1-Ig binding to PD-L1-TVMV-His; value given as range class; read-out: HTRF IC50

Row | Structure (SMILES) | IC50 [nM]
2 | CCCC[C@H]1C(=O)N(C)[C@@H](CCCC)C(=O)N[C@@H](CC(C)C)C(=O)N[C@H](C(=O)NCCCCCCCCCCC(=O)NCCCCCCCCCCC(=O)O)CSCC(=O)N[C@@H](Cc2ccc(O)cc2)C(=O)N(C)[C@@H](C)C(=O)N[C@@H](CC(N)=O)C(=O)N2CCC[C@H]2C(=O)N[C@@H](CN)C(=O)N[C@@H](CCC(N)=O)C(=O)N2C[C@H](O)C[C@H]2C(=O)N[C@@H](Cc2c[nH]c3ccccc23)C(=O)N[C@@H](CO)C(=O)N[C@@H](Cc2cn(CC(=O)O)c3ccccc23)C(=O)N1C [Example 11089] ({CH2CO}-Y[NMeA]NP[Dap]Q[Hyp]WS[Trp(1-CH2COOH)][NMeNle][NMeNle]LC[Aun][Aun]-OH; thioether N-14) | 10 to 99
3 | CCCC[C@H]1C(=O)N(C)CC(=O)N[C@@H](CC(=O)O)C(=O)N[C@@H](C(C)C)C(=O)N(C)[C@@H](Cc2ccccc2)C(=O)N[C@@H](Cc2ccc(O)cc2)C(=O)N(C)[C@@H](CCC(=O)O)C(=O)N[C@@H](Cc2c[nH]c3ccccc23)C(=O)N[C@@H](Cc2ccc(O)cc2)C(=O)N[C@@H](CC(C)C)C(=O)N[C@H](C(=O)NCC(=O)NCC(=O)NCC(=O)N[C@@H](CCCCNC(=O)CCOCCOCCOCCOCCOCCOCCOCCOCCOCCOCCOCCOC)C(N)=O)CSCC(=O)N[C@@H](Cc2ccccc2)C(=O)N(C)[C@@H](Cc2ccccc2)C(=O)N1C [Example 3621] ({CH2CO}-F[NMeF][NMeNle][Sar]DV[NMeF]Y[NMeE]WYLCGGGK(CH3O(CH2CH2O)11CH2CH2CO)-NH2; thioether N-13) | 10 to 99

The next lines start with the values.

Row | IC50 [nM] | Structure (SMILES)
4 | 10 to 99 | C#CC[C@H](NC(=O)CNC(=O)CNC(=O)[C@@H]1CSCC(=O)N[C@@H](Cc2ccc(O)cc2)C(=O)N(C)[C@@H](C)C(=O)N[C@@H](CC(N)=O)C(=O)N2CCC[C@H]2C(=O)N[C@@H](CN)C(=O)N[C@@H](CC(C)C)C(=O)N2C[C@H](O)C[C@H]2C(=O)N[C@@H](Cc2c[nH]c3ccccc23)C(=O)N[C@@H](CCN)C(=O)N[C@@H](Cc2cn(CC(=O)O)c3ccccc23)C(=O)N(C)[C@@H](CCCC)C(=O)N(C)[C@@H](CCCC)C(=O)N[C@@H](CC(C)C)C(=O)N1)C(=O)O [INT130AA] ({CH2CO}-Y[NMeA]NP[Dap]L[Hyp]W[Dab][Trp(1-CH2COOH)][NMeNle][NMeNle]LCGG[Pra]-OH; thioether N-14)
5 | 0.3 to 9.9 | CCCC[C@H]1C(=O)N(C)[C@@H](CCCC)C(=O)N[C@@H](CC(C)C)C(=O)C[C@H](C(=O)NCC(=O)N[C@@H](CCC(=O)O)C(=O)NCCCOCCOCCOCCCNC(=O)CC[C@H](NC(=O)CCCCCCCCCCCCCCCCC(=O)O)C(=O)O)CSCC(=O)N[C@@H](Cc2ccc(O)cc2)C(=O)N(C)[C@@H](C)C(=O)N[C@@H](CC(N)=O)C(=O)N2CCC[C@H]2C(=O)N[C@@H](CN)C(=O)N[C@@H](CC(C)C)C(=O)N2C[C@H](O)C[C@H]2C(=O)N[C@@H](Cc2c[nH]c3ccccc23)C(=O)N[C@@H](CCN)C(=O)N[C@@H](Cc2cn(CC(=O)O)c3ccccc23)C(=O)N1C [Example 11167]
